According to patent US6433174B1, “Process for producing novel naphthyridine derivatives” (Nippon Kayaku Kabushiki Kaisha, priority 1998, dated 2002):

Assays:
NK-2 receptor [1] = target: T1, NK-2 receptor (Rattus norvegicus, UniProt P16610); test: NK-2 receptor binding test (125I-neurokinin A, rat duodenum membrane preparation); conditions: rat duodenum membranes, 125I-neurokinin A 1×10^−9 M, room temperature, 90 minutes; read-out: IC50 of the drug against radioactive neurokinin A binding
T1 construct: from tissue; host or cells: rat duodenum membrane preparation
T1 sequence (P16610 1-390): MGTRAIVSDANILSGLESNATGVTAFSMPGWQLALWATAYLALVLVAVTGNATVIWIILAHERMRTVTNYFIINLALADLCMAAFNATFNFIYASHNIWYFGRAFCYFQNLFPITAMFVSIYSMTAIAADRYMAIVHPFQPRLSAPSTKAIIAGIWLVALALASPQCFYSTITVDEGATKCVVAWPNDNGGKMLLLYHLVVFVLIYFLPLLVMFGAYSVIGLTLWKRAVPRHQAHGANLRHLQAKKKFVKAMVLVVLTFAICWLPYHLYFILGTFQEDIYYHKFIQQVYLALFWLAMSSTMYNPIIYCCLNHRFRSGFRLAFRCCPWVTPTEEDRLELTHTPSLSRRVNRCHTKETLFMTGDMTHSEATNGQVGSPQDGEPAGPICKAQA
Method: NK-2 Receptor Binding Test
The duodenum taken out from a Fischer-strain male rat was homogenized in a 50 mM tris-hydrochloride buffer solution containing ethylenediaminetetracetic acid (1 mM), and 48,000 g of the obtained homogenate was subjected to centrifugal sedimentation at 4° C. for 20 minutes. The produced pellets were washed thrice with 10 times as much volume of a 50 mM trishydrochloride butter solution containing KCl (300 mM) and ethylenediaminetetracetic acid (10 mM), and the obtained membrane preparation was suspended in 10 times as much volume of a 50 mM tris-hydrochloride buffer solution (pH 7.4) and kept at −80° C. till it was offered to use. The above membrane preparation (20 mg/ml) was incubated with a radioactive legand 125 I-neurokinin A (1×10^−9 M) in a 50 mM tris-hydrochloride buffer solution (pH 7.4) containing bovine serum albumin (10 mg/ml), bacitracin (40 μg/ml), leupepsin (4 μg/ml), chymostatin (50 μg/ml), antipain (1×10^−4 M) and MnCl2 (1 mM) in the presence of a drug or its solvent at room temperature for 90 minutes. The reaction solution was suction-filtered by a GE/B filter pretreated with polyethylene-imine (0.1%), and was washed with 3 ml of a 50 mM tris-hydrochloride buffer solution (pH 7.4) containing MnCl2 (1 mM), and the radioactivity in the filter was measured by a gamma counter. With the radioactivity in the presence of Nle10 eurokinin A (4-10) (3×10^−6 M) being taken as non-specific binding, the specific binding inhibition rate by the drug was given as control in the case of a solvent, and the 50% inhibition concentration (IC50) of the drug was determined from the linear regression.

NK-2 receptor [2] = target: T2, NK-2 receptor (Cavia porcellus, UniProt Q64077); test: Antagonistic action against NK-2 receptor: neurokinin A-induced contraction of isolated guinea pig trachea; assay type: cell-based; conditions: drug concentration 5 × 10^−9 M, neurokinin A 1×10^−9 M, 110-minute incubation, read-out: Inhibition rate of neurokinin A-induced contraction
T2 construct: Specimens were prepared by joining 5 slices from said trachea; from tissue; host or cells: isolated guinea pig trachea (A2); anesthetized guinea pig airway in vivo (A5)
T2 sequence (Q64077 1-402): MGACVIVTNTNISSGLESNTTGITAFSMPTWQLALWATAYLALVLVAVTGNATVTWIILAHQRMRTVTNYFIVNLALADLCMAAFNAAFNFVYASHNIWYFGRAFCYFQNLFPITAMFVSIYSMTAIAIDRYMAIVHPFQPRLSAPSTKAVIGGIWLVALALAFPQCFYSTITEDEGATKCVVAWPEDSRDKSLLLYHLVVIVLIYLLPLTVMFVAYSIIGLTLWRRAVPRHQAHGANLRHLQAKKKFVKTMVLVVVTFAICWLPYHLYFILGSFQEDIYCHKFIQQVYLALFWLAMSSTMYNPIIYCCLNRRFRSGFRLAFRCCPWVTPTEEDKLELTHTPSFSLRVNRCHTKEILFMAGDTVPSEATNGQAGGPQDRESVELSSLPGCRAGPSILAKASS
Method: Antagonistic Action Against NK-2 Receptor
A Hartley-strain male guinea pig was caused to die by head contusion and blood depletion, and its trachea was extracted. Specimens were prepared by joining 5 slices from said trachea, and they were suspended with a tension of 0.5 gram-weight in a 15-ml Magunus tank containing a 37° C. Krebs-Henseleit liquid through which a mixed gas of 95% O2 and 5% CO2 had been passed. A Krebs-Henseleit liquid containing indomethacin (5×10^−6 M) was used to obviate the participation of endogenous prostaglandin. After confirming the maximum contraction of each specimen by methacholine, a drug or its solvent was added and, after 110-minute incubation, neurokinin A (1×10^−9 M) was acted thereto. Phosphoramidon (1×10^−5 M) was added for inhibiting decomposition of neurokinin A 30 minutes before the addition of neurokinin A and (±) CP-96345 (3×10^−7 M) was added for eliminating the participation of NK-1 receptor 20 minutes before the addition of neurokinin A. The contraction by neurokinin A was first determined as a ratio to the maximum contraction of each specimen, and then the inhibition rate by the drug was determined with the amount of contraction of the solvent-added specimen as control.

NK-1 receptor = target: T3, NK-1 receptor (Cavia porcellus, UniProt P30547); test: Antagonistic action against NK-1 receptor: Methyl Substance P-induced contraction of isolated guinea pig ileum; assay type: cell-based; conditions: Methyl Substance P 1×10^−9 M, 35-minute incubation, read-out: IC50 of the drug against contraction by Methyl Substance P
T3 construct: its ileum was extracted; An approximately 3 cm long specimen was prepared therefrom; from tissue; host or cells: isolated guinea pig ileum
T3 sequence (P30547 whole entry): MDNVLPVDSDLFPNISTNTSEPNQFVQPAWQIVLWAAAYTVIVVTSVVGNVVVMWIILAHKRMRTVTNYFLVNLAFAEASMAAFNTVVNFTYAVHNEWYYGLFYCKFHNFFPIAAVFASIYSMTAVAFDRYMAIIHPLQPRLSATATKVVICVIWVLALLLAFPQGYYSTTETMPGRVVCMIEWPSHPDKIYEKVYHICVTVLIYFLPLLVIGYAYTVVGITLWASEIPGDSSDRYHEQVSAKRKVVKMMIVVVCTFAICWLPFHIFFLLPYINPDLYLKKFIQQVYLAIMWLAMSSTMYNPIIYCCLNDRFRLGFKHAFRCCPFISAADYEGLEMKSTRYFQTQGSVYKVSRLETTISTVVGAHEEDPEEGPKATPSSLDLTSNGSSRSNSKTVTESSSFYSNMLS
Method: Antagonistic Action Against NK-1 Receptor
A Hartley strain male guinea pig was caused to die by head contusion and blood depletion, and its ileum was extracted. An approximately 3 cm long specimen was prepared therefrom, and it was suspended with a tension of 0.5 gram-weight in a 15 ml Mogunus tank containing a 37° C. Krebs-Henseleit liquid through which a mixed gas of 95% O2 and 5% CO2 had been passed. A Krebs-Henseleit liquid containing atropin (1×10^−6 M) and indomethacin (5×10^−6 M) was used to get rid of the participation of endogenous acetylcholine and prostaglandin. Methyl Substance P (1×10^−9 M), which is a specific stimulant of NK-1 receptor, was acted repeatedly at intervals of 40 minutes. After contraction by Methyl Substance P was stabilized, the drug was added in various concentrations and, after 35-minute incubation, Methyl Substance P was again acted. The contraction inhibition rate by the drug was determined with the contraction just before the addition of the drug as control, and the 50% inhibition concentration (IC50) of the drug was calculated from the linear regression.

NK-3 receptor = target: T4, NK-3 receptor (Cavia porcellus, UniProt P30098); test: Antagonistic action against NK-3 receptor: senktide-induced contraction of isolated guinea pig ileum; assay type: cell-based; conditions: senktide 1×10^−9 M, 35-minute incubation, read-out: IC50 of the drug against contraction by senktide
T4 construct: its ileum was extracted; An approximately 3 cm long specimen was prepared therefrom; from tissue; host or cells: isolated guinea pig ileum
T4 sequence (P30098 1-440): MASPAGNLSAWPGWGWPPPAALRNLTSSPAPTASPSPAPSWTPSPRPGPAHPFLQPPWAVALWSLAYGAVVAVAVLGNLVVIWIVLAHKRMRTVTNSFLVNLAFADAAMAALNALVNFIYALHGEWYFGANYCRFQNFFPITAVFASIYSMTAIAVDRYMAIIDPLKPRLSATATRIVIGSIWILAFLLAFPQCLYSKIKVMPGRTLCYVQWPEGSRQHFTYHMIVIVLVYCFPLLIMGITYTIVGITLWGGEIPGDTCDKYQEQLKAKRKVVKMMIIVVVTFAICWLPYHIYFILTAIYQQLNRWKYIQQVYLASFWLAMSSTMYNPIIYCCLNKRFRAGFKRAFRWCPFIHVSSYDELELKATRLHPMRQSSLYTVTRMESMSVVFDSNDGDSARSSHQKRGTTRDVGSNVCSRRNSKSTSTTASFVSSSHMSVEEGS
Method: Antagonistic Action Against NK-3 Receptor
A Hartley-strain male guinea pig was caused to die by head contusion and blood depletion, and its ileum was extracted. An approximately 3 cm long specimen was prepared therefrom, and it was suspended with a tension of 0.5 gram-weight in a 15 ml Magunus tank containing a 37° C. Kregs-Henseleit liquid through which a mixed gas of 95% O2 and 5% CO2 had been passed. A Krebs-Henseleit liquid containing atropin (1×10^−6 M) and indomethacin (5×10^−6 M) was used to obviate the participation of endogenous acetylcholine and prostaglandin. Senktide (1×10^−9 M), which is a specific stimulant of NK-3 receptor, was acted repeatedly at intervals of 50 minutes. After contraction by senktide was stabilized, the drug was added in various concentrations and, after 35-minute incubation, senktide was again acted. The contraction inhibition rate by the drug was determined with the amount of contraction just before the addition of the drug as control, and the 50% inhibition concentration (IC50) of the drug was determined from the linear regression.

NK-2 receptor [3] = target: T2, NK-2 receptor; test: Inhibitory action against stricture of airway caused by NK-2 receptor stimulation and antigen inhalation; assay type: in vivo; conditions: guinea pig
Method: Inhibitory Action Against Stricture of Airway
The non-treated Hartley strain male guinea pigs and the Hartley strain male guinea pigs which had been actively sensitized by subcutaneous administration of 300 mg/kg of ovalbumin 14 to 21 days ago were used. A tube was inserted into the trachea of each guinea pig anesthetized with pentobarbital, and positive pressure breathing was conducted at a rate of 60 times of breathing per minute (10 ml/kg) by an artificial breathing system. Lateral pressure of the tube in the trachea was measured as an index of stricture of airway. Spontaneous respiration was inhibited by the administration of succinylcholine. To the non-treated guinea pigs, 2 μmol of Nle10 neurokinin A (4-10)—a specific stimulant to NK-2 receptor—was intravenously injected repeatedly at intervals of 10 minutes. After the induced airway restriction reaction was stabilized, the drug was administered intravenously or perorally. 3 minutes after intravenous administration or 50 minutes after peroral or intraduodenal administration, Nle10 neurokinin A (4-10) was again intravenously injected. The inhibition rate by the drug was determined with the degree of airway restriction before drug administration as control.
15 minutes after intravenous administration of 4.6 μmol/kg of phosphoramidon to each actively sensitized guinea pig, it was forced to inhale, for 2 minutes, an aerosol of an antigen ovalbumin solution (2 mg/ml) generated by a supersonic nebulizer to induce stricture of the airway. The drug or its solvent was administered perorally 50 minutes before the antigen inhalation. 8 minutes after antigen inhalation of the solvent-administered group, the inhibition rate of the drug-administered group was determined with the degree of airway stricture of the solvent-administered group as control.

Mouse = test: Toxic action in mouse, intravenous administration; assay type: in vivo
Text: Toxicity of the novel naphthyridine derivatives of the present invention was examined.

Compound | IC50 (NK-2 receptor [1]) [nM] | inhibition at 0.005 µM (NK-2 receptor [2]) [%] | IC50 (NK-1 receptor) [nM] | IC50 (NK-3 receptor) [nM] | Inhibition rate (%) NK-2 receptor stimulation and antigen inhalation (NK-2 receptor [3]; 1 μmol/kg, Intravenous) [%] | Inhibition rate (%) NK-2 receptor stimulation and antigen inhalation (NK-2 receptor [3]; 8 μmol/kg, Peroral) [%] | Inhibition rate (%) NK-2 receptor stimulation and antigen inhalation (NK-2 receptor [3]; 10 μmol/kg, Peroral) [%] | Toxicity by intravenous administration of the drug (Mouse; 22 μmol/kg intravenous) | Toxicity by intravenous administration of the drug (Mouse; 65 μmol/kg intravenous) | Inhibition rate (%) NK-2 receptor stimulation and antigen inhalation (NK-2 receptor [3]; 0.5 μmol/kg, Intravenous) [%]
CN(CC(CCN1CCc2nc3c(cc2C1)CCCC3)c1ccc(Cl)c(Cl)c1)C(=O)c1ccccc1 (stereo not drawn) [(2)-b] | 56 | 89.1 | 470 | 180 | 94.2 | 67.2 | 54.1 | None | None | 
CN(CC(CCN1CCc2nc3ccccc3c(-c3ccccc3)c2C1)c1ccc(Cl)c(Cl)c1)C(=O)c1ccccc1 (stereo not drawn) [(3)-b] | 70 |  |  |  |  |  |  |  |  | 70.0
CC(=O)Nc1c2c(nc3ccccc13)CCN(CCC(CN(C)C(=O)c1ccccc1)c1ccc(Cl)c(Cl)c1)C2 (stereo not drawn) [(6)-b] | 18 |  |  |  |  | 81.5 |  |  | None | 100.0
